Literature values as cited in patent US5807732A, “GDP-L-fucose: β-D-galactoside 2-α-L-fucosyltransferases, DNA sequences encoding the same, method for producing the same and a method of genotyping a person” (priority 1995, dated 1998).
Values joined by “and” are separate entries in the source; they are usually repeats but may differ in a detail not shown here. Equal entries are not always repeated. Where two headings read alike, the source gives them in different places.

T1: H α(1,2)fucosyltransferase (Homo sapiens, UniProt P19526)
T1 sequence (P19526 1-365): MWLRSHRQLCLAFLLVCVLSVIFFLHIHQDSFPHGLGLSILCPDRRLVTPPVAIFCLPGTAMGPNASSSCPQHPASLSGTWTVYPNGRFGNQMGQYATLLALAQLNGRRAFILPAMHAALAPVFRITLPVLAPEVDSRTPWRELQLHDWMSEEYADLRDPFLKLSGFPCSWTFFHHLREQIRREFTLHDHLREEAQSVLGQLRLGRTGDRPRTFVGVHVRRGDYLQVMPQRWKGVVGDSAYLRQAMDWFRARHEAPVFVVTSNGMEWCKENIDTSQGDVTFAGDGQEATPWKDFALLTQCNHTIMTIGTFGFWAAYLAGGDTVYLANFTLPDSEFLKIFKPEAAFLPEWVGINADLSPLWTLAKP

B1: H blood group cDNA-encoded α(1,2)fucosyltransferase: human H blood group (FUT1) α(1,2)fucosyltransferase expressed from cDNA in COS-7 cells (protein, UniProt P19526 1-365, looked up)
Galactoside …: T1 sequence (P19526 1-365)

Legend:
[1] = tested on: Secretor α(1,2)fucosyltransferase; details: read-out: Apparent Km
[2] = molecular target: T1, H α(1,2)fucosyltransferase; details: enzyme H; literature values; read-out: Apparent Km
[3] = tested on: transfected COS-7 cells; details: expressed in COS-7 cells
[4] = enzyme Secretor, literature values

Row | Molecule | Km [1, 4] | Km [2] | other results
1 | C[C@@H]1O[C@H](OP(=O)(O)OP(=O)(O)OC[C@H]2O[C@@H](n3cnc4c(=O)[nH]c(N)nc43)[C@H](O)[C@@H]2O)[C@@H](O)[C@H](O)[C@@H]1O [GDP-fucose] | 108 µM and 123 µM |  | 
2 | CC(=O)N[C@H]1[C@H](O[C@H]2[C@@H](O)[C@@H](CO)O[C@@H](O[C@H]3[C@H](O)[C@@H](O)C(O)O[C@@H]3CO)[C@@H]2O)O[C@H](CO)[C@@H](O)[C@@H]1O[C@@H]1O[C@H](CO)[C@H](O)[C@H](O)[C@H]1O (stereo partly drawn) [lacto-N-tetraose] | 1600 µM |  | 
3 | CC(=O)N[C@H]1C(O)O[C@H](CO)[C@@H](O)[C@@H]1O[C@@H]1O[C@H](CO)[C@H](O)[C@H](O)[C@H]1O (stereo partly drawn) [lacto-N-biose I] | 1000 µM | 2000 µM | 
4 | OC[C@H]1O[C@@H](Oc2ccccc2)[C@H](O)[C@@H](O)[C@H]1O [phenyl-β-D-galactoside] |  |  | Km ([1]; human Secretor α(1,2)fucosyltransferase partially purified from human milk): 15100 µM; Km ([1]; human Secretor α(1,2)fucosyltransferase purified from human serum): 11400 µM
5 | COC1O[C@H](CO)[C@@H](O)[C@H](O[C@@H]2O[C@H](CO)[C@H](O)[C@H](O)[C@H]2O)[C@H]1NC(C)=O (stereo partly drawn) [lacto-N-biose I (--O--Me)] | 1400 µM | 3500 µM | 
6 | B1 |  |  | distribution of α(1,2)fucosyltransferase activity between cells and media [3]: largely cell-associated
